Experimental data reported in patent US5028727A, “Platinum-(IV)-diamine complex” (Nederlandse Organisatie Voor …, priority 1988, dated 1991).
“Also recorded” adds a separate entry of the source.

Assays:
[1] = test system: A2780 human ovary carcinoma; assay: In vitro cytotoxicity, A2780 human ovary carcinoma; assay type: cell-based; conditions: 72 hours incubation, crystal violet
Experimental: (§1) Logarithmically growing cells were harvested by mild trypsinisation and 4,000 cells were added to a microtitre plate with 96 wells (Costar). […] Formalin (10%) in a phosphate-buffered physiological saline solution was added and the cells were fixed for 10 minutes.

A2780/124 = assay: In vitro cytotoxicity, A2780/124 sub-line resistant to cis-platinum; assay type: cell-based, human; conditions: for IC50: A2780/124, 72 hours incubation, crystal violet
Experimental: as §1

[2] = test system: HCT-116 human colon carcinoma; assay: In vitro cytotoxicity, HCT-116 human colon carcinoma; assay type: cell-based; conditions: HCT116; 72 hours incubation; crystal violet
Experimental: as §1

A2780/DDP = assay: In vitro cytotoxicity, A2780/DDP sub-line resistant to cis-platinum; assay type: cell-based, human; conditions: for IC50: A2780/DDP, 72 hours incubation, crystal violet
Experimental: as §1

B16 melanoma = assay: Action against B16 melanoma; assay type: in vivo, BDF1 mice; conditions: day 1-9
Experimental: BDF1 mice, 10 per group, are inoculated intraperitoneally with 0.5 ml of a 10% (weight/vol) homogeneous tissue suspension of B16 melanoma. Intraperitoneal treatment with the active compound was started one day after the implantation and continued daily for a total of 9 days. The control group treated with a physiological saline solution and groups treated with cis-platinum were included in each experiment. The mice were assessed daily for survival and tests were stopped after 60 days. The mean survival time of the mice treated with the active agent relative to that of the comparison (% T/C) was used as a measure for the anti-tumour action. A compound is regarded as active with a % T/C of 125%.
=Dose is mg/kg per injection administered i.p. on day 1-9

[3] = test system: tumour cells resistant to cis-platinum (A2780/124 and A2780/DDP); assay: Action against tumour cells resistant to cis-platinum; assay type: cell-based, human
Experimental: For cis-platinum the corresponding values are 10 and 12.6 respectively.
as §1

B16-F10 murine melanoma = assay: In vitro cytotoxicity, B16-F10 murine melanoma; assay type: cell-based; conditions: 72 hours incubation, crystal violet
Experimental: as §1

L1210 murine leukaemia = assay: Activity against L1210 murine leukaemia; assay type: in vivo, CDF1 mice; conditions: for % T/C: once on day 1
Experimental: The platinum complex was investigated for anti-tumour action against L1210 murine leukaemia. CDF1 mice with a weight of 20 g were inoculated intraperitoneally with 10^6 ascitic cells of L1210 leukaemia. The administration of the active complex was started the day following the intraperitoneal implantation of the tumour. The complex was administered in diverse amounts by intraperitoneal injections. Groups of 6 mice were used for each dose and they were treated with a single dose of the complex on the treatment day. A group of ten control mice treated with a physiological saline solution was included in the experiment. Mice treated with cis-diamine-dichloro-platinum (cis-platinum) were included as positive comparisons. The mice were weighed before the treatment and again on the fifth or sixth day and the average change in weight was taken as a measure of the toxicity. The animals were assessed daily for mortality and the experiments were ended after 30 days. The tumour activity was determined on the basis of % T/C, which is the ratio of mean survival time of the group treated with the active complex relative to the mean survival time of the control group treated with a physiological saline solution times 100. The mice treated with physiological saline solution usually have a mean survival time of 7 days. A compound is regarded as active when this gives a T/C ≥125%.
=Dose is mg/kg administered i.p., once on day 1.

M5076 sarcoma = assay: Action against subcutaneously implanted M5076 sarcoma; assay type: in vivo, BDF1 mice; conditions: day 5, 9, 13 and 17
Experimental: The complex was also assessed for anti-tumour action against subcutaneously implanted M5076 sarcoma. BDF1 mice, 8 per group, were inoculated subcutaneously with a fragment of a M5076 tumour. The mice were treated intravenously starting 5 days after the implantation and again on days 9, 13 and 17. […] Four doses of the complex were tested. A comparison group treated with physiological saline solution and groups treated with cis-platinum are included in this experiment. The mice were assessed daily for survival and the tests were ended after 75 to 80 days.

tumours = conditions: Rosenberg et al., Nature 222 (1969); cited from earlier work
[4] = resistance criterion: ratio ≥4.0

| SMILES | IC50 [1] [µg/mL] | IC50 (A2780/124) [µg/mL] | IC50 [2] [µg/mL] | IC50 (A2780/DDP) [µg/mL] | % T/C (B16 melanoma; 0.4 mg/kg per injection i.p.) [%] | % T/C (B16 melanoma; 0.8 mg/kg per injection i.p.) [%] | % T/C (B16 melanoma; 1.6 mg/kg per injection i.p.) [%] | % T/C (B16 melanoma; 2.4 mg/kg per injection i.p.) [%] | IC50 (B16-F10 murine melanoma) [µg/mL] | % T/C (L1210 murine leukaemia; 4 mg/kg i.p.) [%] | % T/C (L1210 murine leukaemia; 6 mg/kg i.p.) [%] | % T/C (L1210 murine leukaemia; 8 mg/kg i.p.) [%] | % T/C (M5076 sarcoma; 3 mg/kg i.v.) [%] | % T/C (M5076 sarcoma; 4 mg/kg i.v.) [%] | also measured |
| --- | --- | --- | --- | --- | --- | --- | --- | --- | --- | --- | --- | --- | --- | --- | --- |
| NCC1(CN)CCCC1.O=S(=O)([O-])[O-].[Cl][Pt+2][Cl] [TNO-40, Cis-sulphato-trans-dichloro-1,1-bis(aminomethyl)cyclopentane-platinum-(IV)] | 6.4 | 21 | 16 | 23 | 137 | 163 | 139 | 83 | 7.4 | 193 | 186 | 180 | 126 | 125 | % T/C (B16 melanoma; 0.2 mg/kg per injection i.p.): 127%; action against cell lines resistant to cis-platinum [3]: exhibits an anti-tumor action; also recorded: surprisingly good action; % T/C (L1210 murine leukaemia; 2,5 mg/kg i.p.): 179%; anti-tumour action against L1210 murine leukaemia (L1210 murine leukaemia; active = T/C ≥125%, all doses investigated): active at all doses investigated; toxicity (M5076 sarcoma; 5 mg/kg i.v.): toxic; toxicity (M5076 sarcoma; 6 mg/kg i.v.): toxic |
| N.N.[Cl][Pt][Cl] [Cis-platinum, cis-diamine-dichloroplatinum] | 2.3 | 23 | 8.5 | 28 | 117 | 137 | 171 | 146 | 9.8 | 131 | 138 | 131 | 134 | 135 | ratio IC50 A2780/124 to IC50 A2780 (A2780/124; [4]): 10; ratio IC50 A2780/DDP to IC50 A2780 (A2780/DDP; [4]): 12.6; anti-tumour activity (tumours): very strong anti-tumour activity; % T/C (L1210 murine leukaemia; 10 mg/kg i.p.): 138%; T-C (mean time for tumours to reach 1 gram, treated relative to untreated) (M5076 sarcoma; 3 mg/kg i.v.): 18.3 days; T-C (mean time for tumours to reach 1 gram, treated relative to untreated) (M5076 sarcoma; 4 mg/kg i.v.): 16.3 days; % T/C (M5076 sarcoma; 5 mg/kg i.v.): 131%; T-C (mean time for tumours to reach 1 gram, treated relative to untreated) (M5076 sarcoma; 5 mg/kg i.v.): 20.5 days; % T/C (M5076 sarcoma; 6 mg/kg i.v.): 121%; T-C (mean time for tumours to reach 1 gram, treated relative to untreated) (M5076 sarcoma; 6 mg/kg i.v.): 20 days |
